ChEMBL document CHEMBL4431324, “Comparative Analysis of Binding Kinetics and Thermodynamics of Dipeptidyl Peptidase-4 Inhibitors and Their Relationship to Structure” (J Med Chem, 2016)

What was measured:
[1] = molecular target: Muscarinic acetylcholine receptor M3 (Homo sapiens, UniProt P20309); test: Inhibition of M3 receptor (unknown origin)
[2] = molecular target: T1, Muscarinic acetylcholine receptor M2 (Homo sapiens, UniProt P08172); test: Inhibition of M2 receptor (unknown origin)
T1 sequence (P08172 whole entry): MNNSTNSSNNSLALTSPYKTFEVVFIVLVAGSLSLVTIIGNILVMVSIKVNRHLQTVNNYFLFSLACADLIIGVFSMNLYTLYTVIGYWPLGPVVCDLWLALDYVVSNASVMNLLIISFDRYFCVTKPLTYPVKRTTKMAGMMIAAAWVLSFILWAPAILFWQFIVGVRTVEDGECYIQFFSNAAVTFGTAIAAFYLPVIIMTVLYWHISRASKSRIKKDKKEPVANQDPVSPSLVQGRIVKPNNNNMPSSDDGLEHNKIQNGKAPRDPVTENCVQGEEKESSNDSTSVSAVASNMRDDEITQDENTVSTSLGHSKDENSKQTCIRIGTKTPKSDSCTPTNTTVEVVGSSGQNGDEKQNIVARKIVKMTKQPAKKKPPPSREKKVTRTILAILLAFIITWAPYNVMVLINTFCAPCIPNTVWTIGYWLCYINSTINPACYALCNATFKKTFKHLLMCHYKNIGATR

[3] = Lipophilicity, log D of the compound at pH 7.4; type: physicochemical; conditions: buffer
[4] = molecular target: T2, Dipeptidyl peptidase 4 (Homo sapiens, UniProt P27487)
T2 sequence (P27487 whole entry): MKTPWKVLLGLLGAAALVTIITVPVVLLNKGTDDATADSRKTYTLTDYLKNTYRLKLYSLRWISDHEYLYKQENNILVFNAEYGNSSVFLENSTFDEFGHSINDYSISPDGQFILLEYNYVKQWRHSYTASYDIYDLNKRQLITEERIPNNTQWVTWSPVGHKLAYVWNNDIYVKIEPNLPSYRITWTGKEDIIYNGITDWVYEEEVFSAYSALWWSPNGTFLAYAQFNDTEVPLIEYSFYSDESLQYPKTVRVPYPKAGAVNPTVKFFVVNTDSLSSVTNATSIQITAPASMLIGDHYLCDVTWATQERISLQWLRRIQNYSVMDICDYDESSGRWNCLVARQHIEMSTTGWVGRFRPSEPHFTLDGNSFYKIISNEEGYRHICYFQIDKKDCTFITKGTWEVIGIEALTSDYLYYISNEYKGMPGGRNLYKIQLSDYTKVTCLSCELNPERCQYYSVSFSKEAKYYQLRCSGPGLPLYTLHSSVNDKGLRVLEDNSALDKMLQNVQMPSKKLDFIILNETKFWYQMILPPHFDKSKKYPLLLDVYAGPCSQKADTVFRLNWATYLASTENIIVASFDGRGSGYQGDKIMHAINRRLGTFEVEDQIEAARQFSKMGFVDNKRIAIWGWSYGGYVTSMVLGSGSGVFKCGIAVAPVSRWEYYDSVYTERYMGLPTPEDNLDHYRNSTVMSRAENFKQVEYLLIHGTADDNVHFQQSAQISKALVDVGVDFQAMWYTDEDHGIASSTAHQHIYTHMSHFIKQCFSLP
Description: Binding affinity to human recombinant DPP4 (39 to 766 residues) by surface plasmon resonance analysis

[5] = molecular target: T2, Dipeptidyl peptidase 4; remark: listed apart in the source
[6] = Renal clearance in wild type mouse at 0.01 mg/kg, iv; type: ADME, organism-based; conditions: in vivo
[7] = Renal clearance in DPP4 knockout mouse at 0.01 mg/kg, iv; type: ADME, organism-based; conditions: in vivo
[8] = Cmax in human plasma at 5 mg; type: ADME, cell-free; design: dose 5 mg

Chain of Muscarinic acetylcholine receptor M3 (P20309 whole entry): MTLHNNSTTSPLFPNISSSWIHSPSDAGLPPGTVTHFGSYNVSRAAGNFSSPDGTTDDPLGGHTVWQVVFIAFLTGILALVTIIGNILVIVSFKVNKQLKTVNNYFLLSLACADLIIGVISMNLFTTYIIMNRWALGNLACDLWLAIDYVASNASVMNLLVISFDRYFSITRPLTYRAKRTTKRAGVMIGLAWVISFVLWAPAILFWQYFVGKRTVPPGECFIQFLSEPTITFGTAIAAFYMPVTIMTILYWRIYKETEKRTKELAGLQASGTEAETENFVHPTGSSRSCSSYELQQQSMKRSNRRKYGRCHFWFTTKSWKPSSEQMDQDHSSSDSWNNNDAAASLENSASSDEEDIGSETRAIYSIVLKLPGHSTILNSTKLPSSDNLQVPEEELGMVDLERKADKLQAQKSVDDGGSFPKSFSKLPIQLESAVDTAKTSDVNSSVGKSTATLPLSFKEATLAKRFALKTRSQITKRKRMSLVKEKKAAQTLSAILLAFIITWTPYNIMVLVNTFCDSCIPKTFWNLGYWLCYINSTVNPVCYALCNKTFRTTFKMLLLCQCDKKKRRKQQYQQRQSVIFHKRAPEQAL

CC(C)=CCn1c(N2CCC[C@H](N)C2)nc2c1c(=O)n(CC(=O)c1ccccc1)c(=O)n2C
IC50 [1]: 150 nM | IC50 [2]: 150 nM | logD [3]: 0 to 1.6

Cn1c(=O)c2c(nc(N3CCCC(N)C3)n2Cc2ccccc2)n(C)c1=O (stereo unspecified)
logD [3]: 0 to 1.6

O=c1[nH]c(=O)c2c(nc(N3CCNCC3)n2Cc2ccccc2)[nH]1
Kd [4]: 806 nM | Kd [5]: 246 nM | logD [3]: 0 to 1.6

CC#CCn1c(N2CCC[C@@H](N)C2)nc2c1c(=O)n(Cc1nc(C)c3ccccc3n1)c(=O)n2C [LINAGLIPTIN]
CL [6]: 2.7% | CL [7]: 24.2% | Cmax [8]: 10 nM | logD [3]: 0 to 1.6
